According to BigSolDB 2.1:

N[C@@H](C(=O)O)c1ccc(O)cc1
Conditions | solubility (mole fraction)
in DMF, 278.27 K | 1.99e-05
in DMF, 283.23 K | 2.39e-05
in DMF, 288.18 K | 2.67e-05
in DMF, 293.2 K | 3.38e-05
in DMF, 298.39 K | 4.03e-05
in DMF, 303.18 K | 4.93e-05
in DMF, 308.26 K | 6e-05
in DMF, 313.2 K | 7.04e-05
in DMF, 318.39 K | 8.68e-05
in DMF, 323.15 K | 0.000102
in ethanol, 278.28 K | 9.26e-05
in ethanol, 283.42 K | 9.3e-05
in ethanol, 288.18 K | 9.34e-05
in ethanol, 293.24 K | 9.37e-05
in ethanol, 298.38 K | 9.4e-05
in ethanol, 303.17 K | 9.42e-05
in ethanol, 308.39 K | 9.43e-05
in ethanol, 313.19 K | 9.44e-05
in ethanol, 318.37 K | 9.45e-05
in ethanol, 323.26 K | 9.45e-05
in methanol, 278.17 K | 0.00042
in methanol, 283.22 K | 0.000421
in methanol, 288.21 K | 0.000421
in methanol, 293.28 K | 0.000423
in methanol, 298.24 K | 0.000424
in methanol, 303.32 K | 0.000425
in methanol, 308.2 K | 0.000426
in methanol, 313.26 K | 0.000427
in methanol, 318.27 K | 0.000429
in methanol, 323.25 K | 0.00043
in tetrachloromethane, 278.38 K | 0.000225
in tetrachloromethane, 283.23 K | 0.000227
in tetrachloromethane, 288.38 K | 0.000231
in tetrachloromethane, 293.36 K | 0.000234
in tetrachloromethane, 298.29 K | 0.000239
in tetrachloromethane, 303.21 K | 0.000244
in tetrachloromethane, 308.36 K | 0.00025
in tetrachloromethane, 313.3 K | 0.000258
in tetrachloromethane, 318.24 K | 0.000264
in tetrachloromethane, 323.19 K | 0.000272
in toluene, 278.28 K | 0.000157
in toluene, 283.33 K | 0.000164
in toluene, 288.38 K | 0.000165
in toluene, 293.32 K | 0.000172
in toluene, 298.23 K | 0.000175
in toluene, 303.32 K | 0.00018
in toluene, 308.39 K | 0.000189
in toluene, 313.37 K | 0.000195
in toluene, 318.17 K | 0.000205
in toluene, 323.27 K | 0.000216
in water, 278.27 K | 0.0018
in water, 283.25 K | 0.00186
in water, 288.37 K | 0.00194
in water, 293.17 K | 0.00203
in water, 298.26 K | 0.00215
in water, 303.29 K | 0.00229
in water, 308.26 K | 0.00244
in water, 313.28 K | 0.00261
in water, 318.17 K | 0.00279
in water, 323.21 K | 0.00299
